Experimental data reported in patent publication EP4748840A1, “IMIDAZO[1,2-A]PYRIDINE TYPE IRAK DEGRADATION AGENT AND USE THEREOF” (TAINUORUI (TIANJIN) BIOTECHNOLOGY CO., LTD, priority 2023, dated 2025).

What follows are compounds tested against T1, IRAK4 (Homo sapiens, UniProt Q9NWZ3) (assay: HiBiT-based intracellular degradation assay of THP1-HIBiT-IRAK4 cells). Conditions: half-maximal degradation concentration of IRAK4 protein, 24 h incubation.
T1 construct: expressed in transfected cells; host or cells: THP1 (THP1-HIBiT-IRAK4 engineered line)
T1 sequence (Q9NWZ3 1-460): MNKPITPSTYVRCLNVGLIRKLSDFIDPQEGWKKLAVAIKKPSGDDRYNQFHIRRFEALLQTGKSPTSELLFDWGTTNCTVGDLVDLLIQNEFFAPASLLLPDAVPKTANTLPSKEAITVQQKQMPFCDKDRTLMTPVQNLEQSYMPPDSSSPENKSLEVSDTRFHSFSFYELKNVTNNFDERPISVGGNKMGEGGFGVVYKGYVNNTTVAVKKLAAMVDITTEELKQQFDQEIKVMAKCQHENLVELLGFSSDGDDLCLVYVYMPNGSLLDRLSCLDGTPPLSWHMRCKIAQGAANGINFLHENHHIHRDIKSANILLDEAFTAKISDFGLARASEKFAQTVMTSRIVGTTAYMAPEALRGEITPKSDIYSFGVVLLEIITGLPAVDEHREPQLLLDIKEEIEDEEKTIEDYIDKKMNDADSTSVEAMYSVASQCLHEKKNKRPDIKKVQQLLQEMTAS
Assay type: cell-based
Method: HiBiT-based intracellular degradation assay of THP1-HIBiT-IRAK4 cells
THP1-HIBiT-IRAK4 cells were cultured in RPMI 1640 medium supplemented with 10% fetal bovine serum (FBS) and 1% penicillin-streptomycin (PS) (37°C and 5% CO2). The THP1-HIBiT-IRAK4 cells were inoculated in a 384-well plate at 5000 cells/40 µL/well. Compound solutions with different concentrations were added at 40 nL/well and incubated for 24 h at 37°C in 5% CO2. HiBiT lysis detection reagents were added to the wells, the plate was incubated for 30 min at room temperature, and luminescence values were read on Envision. [formula]
The DC50 (half-maximal degradation concentration) of each compound was obtained using XLfit software and the following nonlinear fitting equation: Y = bottom + (top−bottom)/(1+10^(∧)((LogDC50−X)×Hillslope)). [formula]
X denotes a log value of the compound concentration.
Y denotes the degradation rate.
Table 1 lists the results of DC50 values of IRAK4 protein degradation. […]

Row | Structure (SMILES) | DC50 [nM]
1 | COc1cc2nc(C3CCN(CCN4CCN(c5ccc6c(c5)C(=O)N(C5CCC(=O)NC5=O)C6)CC4)CC3)cn2cc1NC(=O)c1cccc(C(F)(F)F)n1 (stereo not shown) [Example 14, N-(2-(1-(2-(4-(2-(2,6-dioxopiperidin-3-yl)-3-oxoisoindolin-5-yl)piperazin-1-yl)ethyl)piperidin-4-yl)-7-methoxyimidazo[1,2-a]pyridin-6-yl)-6-(trifluoromethyl)pyridine-2-carboxamide] | 1.33
2 | CC(C)(O)c1cc2nc(C3CCN(CCN4CCC5(CC4)CN(c4ccc6c(c4)C(=O)N(C4CCC(=O)NC4=O)C6=O)C5)CC3)cn2cc1NC(=O)c1cccc(C(F)(F)F)n1 (stereo not shown) [Example 16, N-(2-(1-(2-(2-(2-(2,6-dioxopiperidin-3-yl)-1,3-dioxoisoindolin-5-yl)-2,7-diazaspiro[3.5]nonan-7-yl)ethyl)piperidin-4-yl)-7-(2-hydroxypropan-2-yl)imidazo[1,2-a]pyridin-6-yl)-6-(trifluoromethyl)pyridine-2-carboxamide] | 3.33
3 | CC(C)(O)c1cc2nc(C3CCN(CCN4CC5(CCN(c6ccc7c(c6)C(=O)N(C6CCC(=O)NC6=O)C7=O)CC5)C4)CC3)cn2cc1NC(=O)c1cccc(C(F)(F)F)n1 (stereo not shown) [Example 17, N-(2-(1-(2-(7-(2-(2,6-dioxopiperidin-3-yl)-1,3-dioxoisoindolin-5-yl)-2,7-diazaspiro[3.5]nonan-2-yl)ethyl)piperidin-4-yl)-7-(2-hydroxypropan-2-yl)imidazo[1,2-a]pyridin-6-yl)-6-(trifluoromethyl)pyridine-2-carboxamide] | 4.86
4 | CC(C)(O)c1cc2nc(C3CCN(CCC4CCN(c5ccc6c(c5)C(=O)N(C5CCC(=O)NC5=O)C6=O)CC4)CC3)cn2cc1NC(=O)c1cccc(C(F)(F)F)n1 (stereo not shown) [Example 18, N-(2-(1-(2-(1-(2-(2,6-dioxopiperidin-3-yl)-1,3-dioxoisoindolin-5-yl)piperidin-4-yl)ethyl)piperidin-4-yl)-7-(2-hydroxypropan-2-yl)imidazo[1,2-a]pyridin-6-yl)-6-(trifluoromethyl)pyridine-2-carboxamide] | 4.29
5 | CC(C)(O)c1cc2nc(C3CCN(CCCN4CCN(c5ccc6c(c5)C(=O)N(C5CCC(=O)NC5=O)C6=O)CC4)CC3)cn2cc1NC(=O)c1cccc(C(F)(F)F)n1 (stereo not shown) [Example 19, N-(2-(1-(3-(4-(2-(2,6-dioxopiperidin-3-yl)-1,3-dioxoisoindolin-5-yl)piperazin-1-yl)propyl)piperidin-4-yl)-7-(2-hydroxypropan-2-yl)imidazo[1,2-a]pyridin-6-yl)-6-(trifluoromethyl)pyridine-2-carboxamide] | 1.95

Other lines, results leading:

Row | DC50 [nM] | Structure (SMILES)
6 | 1.35 | CC(C)(O)c1cc2nc(C3CCN(C4CN(C5CCN(c6ccc7c(c6)C(=O)N(C6CCC(=O)NC6=O)C7=O)CC5)C4)CC3)cn2cc1NC(=O)c1cccc(C(F)(F)F)n1 (stereo not shown) [Example 20, N-(2-(1-(1-(1-(2-(2,6-dioxopiperidin-3-yl)-1,3-dioxoisoindolin-5-yl)piperidin-4-yl)azetidin-3-yl)piperidin-4-yl)-7-(2-hydroxypropan-2-yl)imidazo[1,2-a]pyridin-6-yl)-6-(trifluoromethyl)pyridine-2-carboxamide]
7 | 2.3 | CC(C)(O)c1cc2nc(C3CCN(CCN4CC5(C4)CN(c4ccc6c(c4)C(=O)N(C4CCC(=O)NC4=O)C6=O)C5)CC3)cn2cc1NC(=O)c1cccc(C(F)(F)F)n1 (stereo not shown) [Example 21, N-(2-(1-(2-(6-(2-(2,6-dioxopiperidin-3-yl)-1,3-dioxoisoindolin-5-yl)-2,6-diazaspiro[3.3]heptan-2-yl)ethyl)piperidin-4-yl)-7-(2-hydroxypropan-2-yl)imidazo[1,2-a]pyridin-6-yl)-6-(trifluoromethyl)pyridine-2-carboxamide]
